Results from ChEMBL document CHEMBL1151357, “Inhibition of Plant Growth by Phenethylamines and Tetrahydroisoquinolines” (1981).
Calls of active or inactive are those of the source. The calls are words filed in the database; no cut-off is given here.

Each molecule was assayed on Phaseolus vulgaris (assay: Growth promoting activity in pinto bean plants at =>150 ug after 4 days).
Assay type: functional, organism-based

| SMILES | Activity |
| --- | --- |
| O=C1CCC2(C(=O)O)c3cc(O)c(O)cc3CCN12 (stereo unspecified) | Active |
| CN1CCc2cc3c(c(O)c2C1)OCO3.Cl | Active |
| CC1(C(=O)O)NCCc2cc(O)c(O)cc21 (stereo unspecified) | Active |
| O=C(O)C1NCCc2cc(O)c(O)cc21 (stereo unspecified) | Active |

These molecules were tested on Phaseolus vulgaris (assay: Growth inhibition of pinto bean plants assessed as inhibition of second inter node elongation at 150 ug after 4 days relative to control).
Assay type: functional

| SMILES | inhibition (INH) [%] |
| --- | --- |
| COc1c(OC(=O)c2ccccc2)c(OC(=O)c2ccccc2)cc2c1C(C)NCC2.Cl (stereo unspecified) | 26 |
| O=C1CCC2(C(=O)O)c3cc(O)c(O)cc3CCN12 (stereo unspecified) | 26 |
| COc1cc2c(c(O)c1OC)[C@H](C)[N+](C)(C)CC2.[I-] | 51 |
| Cl.NCCc1ccc(O)c(O)c1 [DOPAMINE HYDROCHLORIDE] | 0 |
| COc1cc(CCN)cc(OC(=O)c2ccccc2)c1OC.Cl | 0 |
| COc1cc([C@@H](O)[C@H](C)N)cc(OC)c1OC.O=C(O)C(=O)O | 0 |
| COc1cc2c(c(O)c1OC)[C@H](C)N(C)CC2.Cl [PELLOTINE HYDROCHLORIDE] | 0 |
| CN1CCc2cc3c(c(O)c2C1)OCO3.Cl | 0 |
| COc1cc(CC[N+](C)(C)C)cc(OC)c1OC.[I-] [TRICHOCERINE METHYL IODIDE] | 76 |
| COc1cc2c(c(OC)c1OC)C(O)CNC2 (stereo unspecified) | 0 |
| COc1cc2c(cc1O)CCN[C@H]2C.Cl [SALSOLINE HYDROCHLORIDE] | 51 |
| COc1cc2c(cc1OC)[C@H](C)N(C)CC2.Cl [CARNEGINE HYDROCHLORIDE] | 100 |
| COc1cc([C@@H](O)[C@H](C)N)cc(O)c1OC.O=C(O)C(=O)O | 26 |
| Cl.NCCc1cc(O)c(O)cc1O [OXIDOPAMINE HYDROCHLORIDE] | 26 |
| COc1ccc2c(c1OC)C(C)N(C)CC2.Cl (racemic) | 100 |
| COc1cc(CCn2cccc2)cc(OC)c1OC [DECARBOXYPEYONINE] | 26 |
| COc1cc(CCN)cc(O)c1OC.Cl | 76 |
| COc1cc2c(c(OC)c1OC)CNCC2.Cl [ANHALININE HYDROCHLORIDE] | 100 |
| COc1cc([C@@H](O)[C@H](C)N)cc(OC)c1OC.O=C(O)C(O)C(O)C(=O)O | 0 |
| COc1cc2c(c(OC)c1OC)C(C)NCC2.Cl (racemic) | 51 |
| COc1cc2c(c(OC)c1OC)[C@H](C)[N+](C)(C)CC2.[I-] | 51 |
| C[N+](C)(C)CCc1ccc(O)cc1.[I-] [CANDICINE IODIDE] | 76 |
| CI.COc1cc2c(c(OC)c1OC)CNCC2 [ANHALININE METHYLIODIDE] | 100 |
| COc1cc([C@@H](O)[C@H](C)N)cc(OC)c1OC.Cl | 26 |
| CC1(C(=O)O)NCCc2cc(O)c(O)cc21 (stereo unspecified) | 0 |
| O=C(O)C1NCCc2cc(O)c(O)cc21 (stereo unspecified) | 26 |

What follows are molecules tested on Phaseolus vulgaris (assay: Phytotoxicity against pinto bean plants assessed as induction of necrosis at 50 ug after 4 days).
Assay type: functional, organism-based

| SMILES | Activity |
| --- | --- |
| COc1cc2c(c(O)c1OC)[C@H](C)[N+](C)(C)CC2.[I-] | Active |
| COc1cc(CC[N+](C)(C)C)cc(OC)c1OC.[I-] [TRICHOCERINE METHYL IODIDE] | Active |
| COc1cc2c(cc1OC)[C@H](C)N(C)CC2.Cl [CARNEGINE HYDROCHLORIDE] | Active |
| COc1cc(CCN)cc(O)c1OC.Cl | Active |
| COc1cc2c(c(OC)c1OC)CNCC2 | Active |
| COc1cc2c(c(OC)c1OC)[C@H](C)[N+](C)(C)CC2.[I-] | Active |
| C[N+](C)(C)CCc1ccc(O)cc1.[I-] [CANDICINE IODIDE] | Active |

What follows are molecules tested on Sorghum bicolor (assay: Growth inhibition of Rio sorghum seedlings assessed as shoot growth from seed coat to tip of second leaf at 1 mg/ml after 4 days).
Assay type: functional

| SMILES | Activity [mm] |
| --- | --- |
| Cl.NCCc1ccc(O)c(O)c1 [DOPAMINE HYDROCHLORIDE] | 40.44 |
| COc1cc(CC[N+](C)(C)C)cc(OC)c1OC.[I-] [TRICHOCERINE METHYL IODIDE] | 36.22 |
| C[N+](C)(C)CCc1ccc(O)cc1.[I-] [CANDICINE IODIDE] | 33.22 |

Each molecule was assayed on Phaseolus vulgaris (assay: Phytotoxicity against pinto bean plants assessed as induction of necrosis at 150 ug after 4 days).
Assay type: functional, organism-based

| SMILES | Activity |
| --- | --- |
| COc1cc(CC[N+](C)(C)C)cc(OC)c1OC.[I-] [TRICHOCERINE METHYL IODIDE] | Active |
| COc1cc([C@@H](O)[C@H](C)N)cc(O)c1OC.O=C(O)C(=O)O | Active |
| COc1cc([C@@H](O)[C@H](C)N)cc(OC)c1OC | Active |
| COc1ccc2c(c1OC)C(C)N(C)CC2.Cl (racemic) | Active |
| COc1cc(CCN)cc(O)c1OC.Cl | Active |
| COc1cc2c(c(OC)c1OC)CNCC2 | Active |
| C[N+](C)(C)CCc1ccc(O)cc1.[I-] [CANDICINE IODIDE] | Active |

What follows are molecules tested on Phaseolus vulgaris (assay: Growth inhibition of pinto bean plants assessed as inhibition of second inter node elongation at 50 ug after 4 days relative to control).
Assay type: functional

| SMILES | inhibition (INH) [%] |
| --- | --- |
| COc1c(OC(=O)c2ccccc2)c(OC(=O)c2ccccc2)cc2c1C(C)NCC2.Cl (stereo unspecified) | 26 |
| O=C1CCC2(C(=O)O)c3cc(O)c(O)cc3CCN12 (stereo unspecified) | 26 |
| COc1cc2c(c(O)c1OC)[C@H](C)[N+](C)(C)CC2.[I-] | 0 |
| Cl.NCCc1ccc(O)c(O)c1 [DOPAMINE HYDROCHLORIDE] | 26 |
| COc1cc(CCN)cc(OC(=O)c2ccccc2)c1OC.Cl | 51 |
| COc1cc([C@@H](O)[C@H](C)N)cc(OC)c1OC.O=C(O)C(=O)O | 26 |
| COc1cc(CCn2cccc2C(=O)O)cc(OC)c1OC [PEYONINE] | 0 |
| COc1cc2c(c(O)c1OC)[C@H](C)N(C)CC2.Cl [PELLOTINE HYDROCHLORIDE] | 26 |
| CN1CCc2cc3c(c(O)c2C1)OCO3.Cl | 0 |
| Cl.NCC(O)c1cccc(O)c1 (stereo unspecified) [NORPHENYLEPHRINE HYDROCHLORIDE] | 26 |
| COc1cc(CC[N+](C)(C)C)cc(OC)c1OC.[I-] [TRICHOCERINE METHYL IODIDE] | 76 |
| COc1cc2c(c(OC)c1OC)C(O)CNC2 (stereo unspecified) | 0 |
| COc1cc2c(cc1O)CCN[C@H]2C.Cl [SALSOLINE HYDROCHLORIDE] | 26 |
| COc1cc2c(cc1OC)[C@H](C)N(C)CC2.Cl [CARNEGINE HYDROCHLORIDE] | 100 |
| COc1cc([C@@H](O)[C@H](C)N)cc(O)c1OC.O=C(O)C(=O)O | 0 |
| Cl.NCCc1cc(O)c(O)cc1O [OXIDOPAMINE HYDROCHLORIDE] | 26 |
| COc1ccc2c(c1OC)C(C)N(C)CC2.Cl (racemic) | 26 |
| COc1cc(CCn2cccc2)cc(OC)c1OC [DECARBOXYPEYONINE] | 51 |
| COc1cc(CCN)cc(O)c1OC.Cl | 76 |
| COc1cc2c(c(OC)c1OC)CNCC2.Cl [ANHALININE HYDROCHLORIDE] | 0 |
| COc1cc([C@@H](O)[C@H](C)N)cc(OC)c1OC.O=C(O)C(O)C(O)C(=O)O | 26 |
| COc1cc2c(c(OC)c1OC)C(C)NCC2.Cl (racemic) | 26 |
| COc1cc2c(c(OC)c1OC)[C@H](C)[N+](C)(C)CC2.[I-] | 26 |
| COC(=O)c1cccn1CCc1cc(OC)c(OC)c(OC)c1 [PEYONINE METHYL ESTER] | 0 |
| C[N+](C)(C)CCc1ccc(O)cc1.[I-] [CANDICINE IODIDE] | 76 |
| CI.COc1cc2c(c(OC)c1OC)CNCC2 [ANHALININE METHYLIODIDE] | 100 |
| COc1cc([C@@H](O)[C@H](C)N)cc(OC)c1OC.Cl | 26 |
| CC1(C(=O)O)NCCc2cc(O)c(O)cc21 (stereo unspecified) | 51 |
| O=C(O)C1NCCc2cc(O)c(O)cc21 (stereo unspecified) | 26 |
